This test deals with T1, Shp2 (Src homology 2-containing phosphotyrosine phosphatase 2) (Homo sapiens, UniProt Q06124).
T1 construct: gene PTPN11; GST-PTP fusion proteins of human Shp2 (residues 205–597)
T1 sequence (Q06124 205-593): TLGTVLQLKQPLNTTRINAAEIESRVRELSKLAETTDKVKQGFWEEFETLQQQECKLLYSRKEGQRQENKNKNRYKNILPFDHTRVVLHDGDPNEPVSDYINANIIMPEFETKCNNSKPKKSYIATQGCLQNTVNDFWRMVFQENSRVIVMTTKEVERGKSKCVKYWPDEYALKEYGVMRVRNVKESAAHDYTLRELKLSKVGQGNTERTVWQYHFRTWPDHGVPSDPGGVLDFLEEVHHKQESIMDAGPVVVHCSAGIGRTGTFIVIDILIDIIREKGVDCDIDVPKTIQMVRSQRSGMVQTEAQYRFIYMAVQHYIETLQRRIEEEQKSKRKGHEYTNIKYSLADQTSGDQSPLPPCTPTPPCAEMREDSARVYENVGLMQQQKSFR
The test can be described thus: activation of recombinant GST-Shp2 phosphatase activity, DiFMUP fluorescence assay. The test is classed as biochemical.

As a reminder, the pEC50 is the negative decadic logarithm of the EC50, by convention in mol/L.

Each structure is given as a SMILES string. pEC50: −log10 of the molar value.

Take `COc1cc([C@H]2Oc3cc4c(cc3[C@@H]2CO)NC(=O)[C@@]4(O)CC#N)ccc1O` [compound 1, plasiatine]: the pEC50 is 6.01.

The record behind these values is PMC4840323, “Plasiatine, an Unprecedented Indole–Phenylpropanoid Hybrid from Plantago asiatica as a Potent Activator of the Nonreceptor Protein Tyrosine Phosphatase Shp2” (Scientific Reports, 2016).
